Data reported in publication PMC12004362 (RSC Advances, 2025).
Like-named read-outs stand apart in the source and are kept apart here.

Key:
[1] = acute use for gout flares, doses up to 1.8 mg within 2 hours; cited from earlier work
in vitro [2] = conditions: human
in vitro [3] = conditions: human, primary human astrocytes
BT-12 cells = test: Secondary screening; type: cell-based, human
BT-16 cells = test: Secondary screening; type: cell-based, human
[4] = test system: human cerebral microvascular endothelial cells (hCMEC/D3 cells)
primary human astrocytes = test: Cytotoxicity test
[5] = Homo sapiens, BT-12, 72 h, read-out: BT-12 cells IC50, 2D culture, 72 h, MTT
[6] = read-out: BT-12 cells IC50, 2D culture, 72 h, MTT
[7] = Homo sapiens, BT-16, 72 h, read-out: BT-16 cells IC50, 2D culture, 72 h, MTT
[8] = read-out: BT-16 cells IC50, 2D culture, 72 h, MTT

IC50 (BT-12 cells; [5]) [nM] | IC50 (BT-16 cells; [7]) [nM] | SMILES | Diarrhea, most frequently reported side effect [1] [%] | CC50 at 72 h (in vitro [2]) [nM] | CC50 at 72 h (in vitro [3]) [nM] | IC50 (BT-12 cells; [6]) [nM] | IC50 (BT-16 cells; [8]) [nM] | SI (CC50/IC50) hCMEC/D3: BT-12 ([4]; CC50 hCMEC/D3 / IC50 BT-12) | SI (CC50/IC50) hCMEC/D3: BT-16 ([4]; CC50 hCMEC/D3 / IC50 BT-16) | SI (CC50/IC50) Astrocytes: BT-12 (primary human astrocytes; CC50 astrocytes / IC50 BT-12) | SI (CC50/IC50) Astrocytes: BT-16 (primary human astrocytes; CC50 astrocytes / IC50 BT-16)
 |  | COc1cc2c(c(OC)c1OC)-c1ccc(OC)c(=O)cc1[C@@H](NC(C)=O)CC2 [Colchicine] | 23 | > 20000 | > 20000 |  |  |  |  |  | 
< 100 | < 100 | C[C@H]1O[C@@H](O[C@H]2[C@@H](O)C[C@H](O[C@H]3[C@@H](O)C[C@H](O[C@H]4CC[C@@]5(C)[C@H](CC[C@@H]6[C@@H]5C[C@@H](O)[C@]5(C)[C@@H](C7=CC(=O)OC7)CC[C@]65O)C4)O[C@@H]3C)O[C@@H]2C)C[C@H](O)[C@@H]1O [Digoxin] |  |  |  | 80 | 76 |  |  |  | 
28 | 42 | COc1cccc2c1C(=O)c1c(O)c3c(c(O)c1C2=O)C[C@@](O)(C(=O)CO)C[C@@H]3O[C@H]1C[C@H](N)[C@H](O)[C@H](C)O1 [Doxorubicin] |  | 699 | 131 |  |  | 24.964 | 16.64 | 4.679 | 3.119

SMILES | IC50 (BT-12 cells; [5]) [nM] | IC50 (BT-16 cells; [7]) [nM] | Diarrhea, most frequently reported side effect [1] [%] | CC50 at 72 h (in vitro [2]) [nM] | CC50 at 72 h (in vitro [3]) [nM] | IC50 (BT-12 cells; [6]) [nM] | IC50 (BT-16 cells; [8]) [nM] | SI (CC50/IC50) hCMEC/D3: BT-12 ([4]; CC50 hCMEC/D3 / IC50 BT-12) | SI (CC50/IC50) hCMEC/D3: BT-16 ([4]; CC50 hCMEC/D3 / IC50 BT-16) | SI (CC50/IC50) Astrocytes: BT-12 (primary human astrocytes; CC50 astrocytes / IC50 BT-12) | SI (CC50/IC50) Astrocytes: BT-16 (primary human astrocytes; CC50 astrocytes / IC50 BT-16)
CC[C@H]1CN2CCc3cc(OC)c(OC)cc3[C@@H]2C[C@@H]1C[C@H]1NCCc2cc(OC)c(OC)cc21 [Emetine] | < 100 | < 100 |  |  | 1240 | 90 | 93 |  |  |  | 
